PMC5034043 (The Journal of Biological Chemistry, 2016)
Like-named read-outs stand apart in the source and are kept apart here.

System: T1, synaptosomal proteome
T1 construct: from tissue; host or cells: brain synaptosomes of male C57/B6 mice
Type: binding, mouse
Procedure: Synaptosomes were resuspended to 1 mg of protein/ml in HEPES buffer medium (in mM: 140 NaCl, 5 KCl, 5 NaHCO3, 1.2 NaH2PO4, 1 MgCl2, 10 glucose, and 10 HEPES (pH 7.4)). […] The samples were allowed to equilibrate for 5 min before being transferred to a parafilm-sealed 1-mm path length quartz cuvette. The sample was then irradiated for 20 min at a peak bandwidth of 350 nm (Rayonet RPR-3500 lamp) ∼6 cm from the light source. Non-irradiated samples were left in the dark at ambient temperature (22–25 °C) for 20 min. All remaining procedures were conducted with restricted light exposure.
To 750 μg of photolabeled or control synaptosome samples, 40 μl of 10% SDS and 2 μl of 5 mM DTT in water were added. Samples were then vortexed, heated for 10 min at 65 °C, and then briefly cooled. Final concentrations of 150 μM azide-biotin (Click Chemistry Tools), 2 mM tris(3-hydroxypropyltriazolylmethyl)amine (Sigma), 1 mM ascorbic acid (Sigma), and 1 mM CuSO4·5H2O (Sigma) were added to each sample and vortexed vigorously. The samples were left in the dark at ambient temperature (22–25 °C) for 1 h with mild agitation. Directly to each sample 4× volume chilled methanol, 1.5× chilled chloroform, and 3× chilled double distilled H2O were added. Samples were vortexed vigorously and centrifuged at 1,400 × g for 30 min at 4 °C. Both liquid layers were carefully removed, and the protein pellet was washed with 2 ml of 1:1 (v/v) chilled methanol/chloroform. Samples were centrifuged at 3,500 × g for 30 min at 4 °C. Protein pellets were briefly air-dried before further processing.
750 μg of biotin-conjugated protein sample was resuspended in 500 μl of 25 mM NH4HCO3 and 6 M urea in water. Next, 150 μl of 5% Triton X-100 in water, 50 μl of 10% SDS in water, and 1.5 μl of 0.5 M DTT were added. The samples were heated for 15 min at 65 °C. After briefly cooling, 14 μl of 0.5 M iodoacetamide in water was added, and the sample was left in the dark for 45 min. […] The supernatant was diluted to 4 ml with PBS, and 2 ml of PBS containing 100 μl of 50% streptavidin-agarose resin (Thermo Scientific) was added. Biotinylated proteins within the sample were captured over resin overnight at 4 °C with mild agitation. The resin was first washed with 6 ml of 1% SDS in PBS, and then 7 ml of 0.1 M urea in PBS followed by 10 ml of PBS. The resin underwent a final wash with 0.9 ml of 50 mM Tris-HCl and 1 mM CaCl2 in water (pH 8.0) and then resuspended in 200 μl of 50 mM Tris-HCl, 1 mM CaCl2 in water (pH 8.0), and 2 μg of porcine sequencing grade trypsin (Promega). Samples were digested overnight at 37 °C. Samples were then centrifuged at 2,000 × g for 4 min, and digest supernatant was decanted. Beads were washed in 100 μl of PBS centrifuged at 5,200 × g for 5 min, and the wash was combined with the digest supernatant. To the combined sample, trifluoroacetic acid (TFA) was added to 0.4% (v/v) or until pH <2. The sample was desalted with Oasis C18 10-mg columns (Waters) as described previously ([66]). The eluted sample was dried by speed vac and resuspended in 0.1 M HEPES buffer (pH 8.5). […] Appropriate corresponding TMTsixplex^TM-labeled samples were pooled and dried by speed vac. The combined samples were resuspended in 0.5% acetic acid in water and pH-corrected with acetic acid until pH was <2. 40 μg of protein was desalted with C18 stage tips prepared in-house and dried by speed vac.
Samples were resuspended in 10 mM KH2PO4 (pH 2.6), 30% acetonitrile (v/v) in water, and fractionated by off-line strong cation exchange chromatography prior to mass spectrometry (MS) analysis similar to as reported previously ([66]). The full synaptosome proteome control was prepared similarly without TMTsixplex^TM labeling.
All TMT samples were analyzed with three-stage mass spectrometry (MS3) TMTsixplex^TM quantification workflow as described previously ([34]).

[1] = protein P27671 Ras-specific guanine nucleotide-releasing factor 1 (Rasgrf1)
[2] = protein P35762 CD81 antigen (Cd81)
[3] = protein P46096 Synaptotagmin-1 (Syt1)
[4] = protein P50544 Very long-chain specific acyl-CoA dehydrogenase, mitochondrial (Acadvl)
[5] = protein P50571 Gamma-aminobutyric acid receptor subunit beta-1 (Gabrb1)
[6] = protein P56564 Excitatory amino acid transporter 1 (Slc1a3)
[7] = protein P60879 Synaptosomal-associated protein 25 (Snap25)
[8] = protein P61264 Syntaxin-1B (Stx1b)
[9] = protein P62204 Calmodulin (Calm1)
[10] = protein P63328 Serine/threonine-protein phosphatase 2B catalytic subunit alpha isoform (Ppp3ca)
[11] = protein Q2TPA8 Hydroxysteroid dehydrogenase-like protein 2 (Hsdl2)
[12] = protein Q3TXX4 Vesicular glutamate transporter 1 (Slc17a7)
[13] = protein Q3UN02 Lysocardiolipin acyltransferase 1 (Lclat1)
[14] = protein Q4W8U9 Scg2 protein (Scg2)
[15] = protein Q5U458 DnaJ homolog subfamily C member 11 (Dnajc11)
[16] = protein Q7TME0 Lipid phosphate phosphatase-related protein type 4 (Lppr4)
[17] = protein Q7TQ95 Protein lunapark (Lnp)
[18] = protein Q8BFT9 Synaptic vesicle 2-related protein (Svop)
[19] = protein Q8BG39 Synaptic vesicle glycoprotein 2B (Sv2b)
[20] = protein Q8BH59 Calcium-binding mitochondrial carrier protein Aralar1 (Slc25a12)
[21] = protein Q8BH66 Atlastin-1 (Atl1)
[22] = protein Q8BUN9 Protein Slc24a2 (Slc24a2)
[23] = protein Q8BW75 Amine oxidase [flavin-containing] B (Maob)
[24] = protein Q8CGK7 Guanine nucleotide-binding protein G(olf) subunit alpha (Gnal)
[25] = protein Q8K0T0 Reticulon-1 (Rtn1)
[26] = protein Q9CPQ3 Mitochondrial import receptor subunit TOM22 homolog (Tomm22)
[27] = protein Q9CWK8 Sorting nexin-2 (Snx2)
[28] = protein Q9D6J5 NADH dehydrogenase [ubiquinone] 1 beta subcomplex subunit 8, mitochondrial (Ndufb8)
[29] = protein Q9D328 Transmembrane protein 35 (Tmem35)
[30] = protein Q9ERS2 NADH dehydrogenase [ubiquinone] 1 alpha subcomplex subunit 13 (Ndufa13)
[31] = protein Q9ESW4 Acylglycerol kinase, mitochondrial (Agk)
[32] = protein Q9QXV0 ProSAAS (Pcsk1n)
[33] = protein Q9QZM0 Ubiquilin-2 (Ubqln2)
[34] = protein Q9R0K7 Plasma membrane calcium-transporting ATPase 2 (Atp2b2)
[35] = protein Q9Z0V2 Potassium voltage-gated channel subfamily D member 2 (Kcnd2)
[36] = protein Q67BT3 Solute carrier family 13 member 5 (Slc13a5)
[37] = protein Q80X80 C2 domain-containing protein 2-like (C2cd2l)
[38] = protein Q91YQ5 Dolichyl-diphosphooligosaccharide--protein glycosyltransferase subunit 1 (Rpn1)
[39] = protein Q99PU5 Long-chain-fatty-acid--CoA ligase ACSBG1 (Acsbg1)

Structure (SMILES): CC(C)c1cccc(C(C)C)c1O [propofol, 2,6-diisopropylphenol, reference compound]
- % propofol protection [1]: 54%
- Log2( Mean 'UV/ UV+propofol') [1]: 1.10
- % propofol protection (protein P35564 Calnexin (Canx)): 54%
- Log2( Mean 'UV/ UV+propofol') (protein P35564 Calnexin (Canx)): 1.07
- % propofol protection [2]: 58%
- Log2( Mean 'UV/ UV+propofol') [2]: 1.14
- % propofol protection [3]: 50%
- Log2( Mean 'UV/ UV+propofol') [3]: 0.95
- % propofol protection [4]: 51%
- Log2( Mean 'UV/ UV+propofol') [4]: 0.99
- % propofol protection [5]: 58%
- Log2( Mean 'UV/ UV+propofol') [5]: 1.06
- Log2( Mean 'UV/ UV+propofol') (protein P56480 ATP synthase subunit beta, mitochondrial (Atp5b)): 1.15
- % propofol protection [6]: 56%
- Log2( Mean 'UV/ UV+propofol') [6]: 1.10
- % propofol protection [7]: 57%
- Log2( Mean 'UV/ UV+propofol') [7]: 1.12
- % propofol protection [8]: 57%
- Log2( Mean 'UV/ UV+propofol') [8]: 1.14
- % propofol protection [9]: 53%
- Log2( Mean 'UV/ UV+propofol') [9]: 0.97
- % propofol protection [10]: 52%
- Log2( Mean 'UV/ UV+propofol') [10]: 0.93
- % propofol protection [11]: 53%
- Log2( Mean 'UV/ UV+propofol') [11]: 1.03
- % propofol protection [12]: 57%
- Log2( Mean 'UV/ UV+propofol') [12]: 1.15
- % propofol protection [13]: 52%
- Log2( Mean 'UV/ UV+propofol') [13]: 1.03
- % propofol protection [14]: 53%
- Log2( Mean 'UV/ UV+propofol') [14]: 0.99
- Log2( Mean 'UV/ UV+propofol') (protein Q5IRJ6 Zinc transporter 9 (Slc30a9)): 1.17
- % propofol protection [15]: 53%
- Log2( Mean 'UV/ UV+propofol') [15]: 0.96
- % propofol protection [16]: 57%
- Log2( Mean 'UV/ UV+propofol') [16]: 1.08
- % propofol protection [17]: 58%
- Log2( Mean 'UV/ UV+propofol') [17]: 1.23
- % propofol protection [18]: 53%
- Log2( Mean 'UV/ UV+propofol') [18]: 0.94
- % propofol protection [19]: 50%
- Log2( Mean 'UV/ UV+propofol') [19]: 0.94
- Log2( Mean 'UV/ UV+propofol') (protein Q8BG51 Mitochondrial Rho GTPase 1 (Rhot1)): 1.18
- Log2( Mean 'UV/ UV+propofol') (protein Q8BH24 Transmembrane 9 superfamily member 4 (Tm9sf4)): 1.11
- % propofol protection [20]: 50%
- Log2( Mean 'UV/ UV+propofol') [20]: 0.98
- % propofol protection [21]: 57%
- Log2( Mean 'UV/ UV+propofol') [21]: 1.14
- % propofol protection [22]: 52%
- Log2( Mean 'UV/ UV+propofol') [22]: 1.03
- % propofol protection [23]: 56%
- Log2( Mean 'UV/ UV+propofol') [23]: 1.10
- % propofol protection [24]: 55%
- Log2( Mean 'UV/ UV+propofol') [24]: 1.05
- % propofol protection [25]: 57%
- Log2( Mean 'UV/ UV+propofol') [25]: 1.05
- Log2( Mean 'UV/ UV+propofol') (protein Q8VCX5 Calcium uptake protein 1, mitochondrial (Micu1)): 1.09
- % propofol protection [26]: 57%
- Log2( Mean 'UV/ UV+propofol') [26]: 1.05
- % propofol protection [27]: 51%
- Log2( Mean 'UV/ UV+propofol') [27]: 1.00
- % propofol protection [28]: 57%
- Log2( Mean 'UV/ UV+propofol') [28]: 1.23
- % propofol protection [29]: 55%
- Log2( Mean 'UV/ UV+propofol') [29]: 1.10
- % propofol protection [30]: 53%
- Log2( Mean 'UV/ UV+propofol') [30]: 0.98
- % propofol protection [31]: 58%
- Log2( Mean 'UV/ UV+propofol') [31]: 1.18
- Log2( Mean 'UV/ UV+propofol') (protein Q9JIG8 PRA1 family protein 2 (Praf2)): 1.23
- % propofol protection [32]: 57%
- Log2( Mean 'UV/ UV+propofol') [32]: 1.11
- % propofol protection [33]: 51%
- Log2( Mean 'UV/ UV+propofol') [33]: 0.96
- % propofol protection [34]: 51%
- Log2( Mean 'UV/ UV+propofol') [34]: 1.00
- Log2( Mean 'UV/ UV+propofol') (protein Q9WU79 Proline dehydrogenase 1, mitochondrial (Prodh)): 1.11
- % propofol protection [35]: 52%
- Log2( Mean 'UV/ UV+propofol') [35]: 1.01
- % propofol protection [36]: 57%
- Log2( Mean 'UV/ UV+propofol') [36]: 1.13
- % propofol protection [37]: 53%
- Log2( Mean 'UV/ UV+propofol') [37]: 1.04
- % propofol protection [38]: 55%
- Log2( Mean 'UV/ UV+propofol') [38]: 1.11
- % propofol protection [39]: 58%
- Log2( Mean 'UV/ UV+propofol') [39]: 1.12
- Log2( Mean 'UV/ UV+propofol') (protein Q925I1 ATPase family AAA domain-containing protein 3 (Atad3)): 1.17
